These results are taken from US9597393B2, “Synthetic toll-like receptor-4 (TLR-4) agonist peptides” (AV Therapeutics, Inc., priority 2012, dated 2017).

Entries after “also recorded” stand apart in the source; their conditions may differ. Ends that are not written are not given here.

A short description of data set [1]: Immunogenicity of the adjuvant peptide itself in mice. The data set is classed as in vivo. Conditions: two groups of 3 mice vaccinated with 25 ng of peptide alone; data not shown. The text has this: This significant increase in X-15 specific antibody concentration with RS09 was observed on day 28 (white bar) post vaccination as shown in FIG. 6. […] Thus, while RS01 and RS09 were not immunogenic at the concentration used, RS09 was capable of enhancing production of X-15 specific antibodies.

Data set [2] concerns the target T1, TLR-4 (Homo sapiens, UniProt O00206).
T1 construct: host or cells: HEK-BLUE-4 (transgenic HEK293)
Put plainly: NF-κB activation (SEAP reporter) in HEK-BLUE-4 cells. The data set is classed as cell-based. Conditions: peptide 1, 5 and 10 μg/ml. As for the experimental part: FIG. 2—LPS peptide mimics activate NF-κB in HEK-BLUE™-4. LPS peptide mimics were dissolved in endotoxin free water and added to 96-well plates at three concentrations; 1 μg/ml (black bar), 5 μg/ml (gray bar), and 10 μg/ml (white bar). HEK-BLUE™4 were then added to each well at a concentration of 5×10^4 cells per well in complete media. The supernatant was then harvested after 24 h and assayed for alkaline phosphatase secretion indicating activation of NF-κB. NF-κB activation is represented in FIG. 2A for peptides RS01-RS07 and in FIG. 2B for peptides RS08-RS12. LPS was used as a positive control in assaying all peptides for NF-κB activation. Absorbance was taken at 630 nm. Each experiment was repeated three times with similar results observed. The standard deviation shown above each sample represents three replicates in one experiment.
The twelve peptides were assayed for their ability to bind to TLR-4 and activate NF-κB using a transgenic HEK293 cell line known as HEK-BLUE™-4. This cell line is stably transfected to only express TLR-4 on its plasma membrane, with no other TLRs present. Detecting activation of NF-κB is made possible by placing secreted alkaline phosphatase (SEAP) under the control of the NF-κB promoter. Therefore, NF-κB activation leads to SEAP secretion, which is detected by an alkaline phosphatase substrate in cell culture media.
The LPS peptide mimics were dissolved in endotoxin free water (HyClone) at a concentration of 1 μg/ml with the exception of peptide 4 which was dissolved in a solution of 1% DMSO made in endotoxin free water at 1 μg/ml concentration. All of the peptide stock solutions and stored at −80° C. Each of the 12 peptides (RS01-RS12) was added to 96-well plates in triplicate in a total volume of 20 μl. The total volume required in each•well was made up with endotoxin free water (HyClone). […] After a noticeable color change, the absorbance was taken at 630 nm using the microplate reader (Bio-Rad). […]

Data set [3] can be described thus: Water solubility of peptide stock. It counts as physicochemical. Conditions: endotoxin free water; dissolved in 1% DMSO instead. As for the experimental part: The LPS peptide mimics were dissolved in endotoxin free water (HyClone) at a concentration of 1 μg/ml with the exception of peptide 4 which was dissolved in a solution of 1% DMSO made in endotoxin free water at 1 μg/ml concentration. All of the peptide stock solutions and stored at −80° C. Each of the 12 peptides (RS01-RS12) was added to 96-well plates in triplicate in a total volume of 20 μl. The total volume required in each•well was made up with endotoxin free water (HyClone). 5×10^4 HEK-BLUE™-4 cells (Invivogen, San Diego, Calif.) were added per well and incubated for approximately 20 h after which the supernatant from each well was collected and placed into a new 96-well plate. 180 μl of HEK-BLUE™ detection media (Invivogen), alkaline phosphatase detection substrate, was added to each well and incubated for 1-3 h at 37° C. After a noticeable color change, the absorbance was taken at 630 nm using the microplate reader (Bio-Rad).
For all peptides, three concentrations, 1 μg/ml (black bars), 5 μg/ml (gray bars), and 10 μg/ml (white bars) were used to activate HEK-BLUE™-4 cells. LPS (0.1 μg/ml) was used as a positive control.

Data set [4] relates to prostate tumor. Conditions: in vivo, administered with an adjuvant; cited from earlier work.
Data set [5] deals with RAW264.7 cells. Put plainly: Inflammatory cytokine secretion from RAW264.7 macrophages (antibody array). The data set is classed as cell-based, mouse. Conditions: 24 h. Here is the method:
FIG. 5—RAW264.7 secretes inflammatory cytokines in response to RS01 and RS09. RAW264.7 cells were seeded at a density of 1×10^6 cells per well of a six well plate followed by addition of either […] (FIG. 5A) or RS09 (FIG. 5B) and incubated for 24 h after which the culture media was collected. LPS was used as a positive control for both RS01 and RS09. Culture media was then analyzed for specific cytokines using an antibody array kit. […] Each cytokine is represented as an IDV value which was calculated by comparing the density of each spot with respect to the density of the internal positive controls. The antibody array represents a qualitative comparison of each cytokine and is […]. Each experiment was repeated three times with similar results observed. […]
RAW264. […] The blots were then developed using ECL (Pierce) and detected on HyBlot CL™ autoradiography film (Denville Scientific). […]
Although the values obtained for each cytokine are not quantitative but rather qualitative, they do show an increase in release of inflammatory cytokines. These values were calculated and presented as IDV, which is the density of each spot compared to the density of the internal positive controls present on each membrane. Values for the various cytokines and chemokines detected are presented in FIG. 5A for RS01 and FIG. 5B for RS09. […]

Data set [6] has as its system NF-κB. In words: NF-κB nuclear translocation Western blot in non-TLR-4 expressing HEK293 (negative control cells). The settings on record: HEK293 lacking TLR-4. It counts as cell-based. As for the experimental part: FIG. 3—LPS peptide mimics lead to NF-κB nuclear translocation. Nuclear translocation studies of NF-κB were performed by Western blot analysis on both RAW264.7 (FIG. 3A), HEK-BLUE™-4 (FIG. 3B), and HEK293 (FIG. 3C) cells. Cells were stimulated with peptide, either RS01 or RS09, at a concentration of 5 μg/ml per 5×10^4 cells at various time points (15, 30, 60, and 120 min) Nuclear protein fractions were assayed for NF-κB while cytoplasmic proteins fractions were assayed for both NF-κB and IκB-α. HDAC was used as a nuclear protein loading control and actin was used as a cytoplasmic protein loading control.
For NF-KB nuclear translocation western blots, cytoplasmic and nuclear protein extracts were prepared from HEK-BLUE™-4, HEK293, and RAW264.7 cells (2×10^6 cells) using NE-PER, nuclear and cytoplasmic extraction reagent kit (PIERCE, Rockford, Ill.). The manufacturer's protocol was followed to separate cytoplasmic and nuclear fractions. Nuclear and cytoplasmic lysates (10 μg protein) were subjected to 12% SDS-PAGE under reducing conditions (presence of β-mercaptoethanol). […] After four washes with TBST and one wash with TBS, membranes were developed by ECL (Pierce) and detected on HyBlot CL™ autoradiography film (Denville Scientific, Inc, Metuchen, N.J.). […]

Data set [7] relates to NF-κB. Put plainly: Fluorescence microscopy of NF-κB nuclear translocation in RAW264.7. It counts as cell-based. The settings on record: 5 μg/ml, 30 min. Here is the method:
FIG. 4—Fluorescence microscopy of NF-κB nuclear translocation. RAW264.7 macrophages were seeded in 8 well chamber slides at a density of 2×10^4 cells per well and stimulated with 5 μg/ml of either RS01 or RS09. After 30 min incubation, cells were fixed (4% para-formaldehyde), permeabilized (0.2% TRITON® X-100), blocked (10% goat serum/1% BSA), and incubated with anti-NF-κB followed by DAPI staining of nuclei. The stained cells were visualized using the Axiovert 200 M microscope with a 40× magnification. NF-KB (green) was more diffusely spread throughout the cytoplasm in control cells but appeared more circular in RS01, RS09, and LPS treated cells.
HEK-BLUE™-4 and RAW264.7 cells were seeded in 8-chamber slides (BD Biosciences, Bedford, Mass.) at a density of 2×10^4 cells per well. Cells were allowed to adhere at 37° C. over night after which the cells were stimulated with LPS peptide mimics at various time points and subsequently processed for immunofluorescence. The cells were fixed with a 4% paraformaldehyde/PBS solution, followed by permeabilization with 0.2% TRITON® X-100, and blocked using a solution of 0.1% TRITON® X-100, 1% BSA, and 10% goat serum. […]

T1 sequence (O00206 24-839): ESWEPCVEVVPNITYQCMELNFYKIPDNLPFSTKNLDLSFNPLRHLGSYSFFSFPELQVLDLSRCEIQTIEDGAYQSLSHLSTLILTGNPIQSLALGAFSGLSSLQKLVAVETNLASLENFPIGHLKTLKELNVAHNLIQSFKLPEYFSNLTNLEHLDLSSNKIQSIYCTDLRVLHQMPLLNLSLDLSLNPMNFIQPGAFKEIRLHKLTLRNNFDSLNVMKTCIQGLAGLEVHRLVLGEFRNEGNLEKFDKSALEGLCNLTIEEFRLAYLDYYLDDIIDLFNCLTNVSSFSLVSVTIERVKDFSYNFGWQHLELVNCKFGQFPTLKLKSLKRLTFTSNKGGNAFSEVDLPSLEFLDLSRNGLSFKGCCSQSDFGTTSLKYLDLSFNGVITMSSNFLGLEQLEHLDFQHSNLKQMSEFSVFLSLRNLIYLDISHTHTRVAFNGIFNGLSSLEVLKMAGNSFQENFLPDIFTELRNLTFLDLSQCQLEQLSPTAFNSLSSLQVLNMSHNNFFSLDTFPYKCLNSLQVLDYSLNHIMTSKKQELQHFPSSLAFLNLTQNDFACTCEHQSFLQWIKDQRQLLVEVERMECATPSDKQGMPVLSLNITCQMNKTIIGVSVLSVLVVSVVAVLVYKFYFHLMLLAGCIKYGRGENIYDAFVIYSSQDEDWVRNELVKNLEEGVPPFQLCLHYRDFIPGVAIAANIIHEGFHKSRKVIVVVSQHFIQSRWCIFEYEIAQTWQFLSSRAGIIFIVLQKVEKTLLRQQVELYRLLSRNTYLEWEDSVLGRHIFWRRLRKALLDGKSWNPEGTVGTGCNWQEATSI
T1 sequence (Q9Y6Y9 17-160 partner limits assumed): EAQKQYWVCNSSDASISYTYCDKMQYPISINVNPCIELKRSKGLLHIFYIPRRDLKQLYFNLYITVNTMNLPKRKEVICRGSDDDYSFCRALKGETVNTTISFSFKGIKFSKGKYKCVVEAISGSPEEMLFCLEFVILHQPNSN

For the substance “APPHALS [RS09, Ala Pro Pro His Ala Leu Ser]”, the “antibody response to the adjuvant peptide (immunogenicity)” value in data set [1] is “no antibodies were produced”.

For the substance ELAPDSP [RS12], the “TLR-4 stimulation and NF-κB activation (alkaline phosphatase secretion, absorbance 630 nm)” value (shortened to “TLR-4 stimulation and NF-κB activation”) in data set [2] was “considered as positive for TLR-4 stimulation and NF-κB activation”.

In the case of “GLQQVLL [RS04, Gly Leu Gln Gln Val Leu Leu]”, the water solubility result in data set [3] was “not water soluble”.

In the case of “GQWQSGDRYWMETST (also: KLH conjugate) [Peptide X-15]”, the “prostate tumor protective properties” value in data set [4] is reported as “possess prostate tumor protective properties in vivo”.

Regarding Lipopolysaccharide [LPS], in data set [5], the “secretion of inflammatory cytokines and chemokines (IDV, qualitative)” value was “capable of inducing inflammatory cytokines and chemokines”. The NF-κB nuclear translocation entry in data set [6] is given as “do not activate the non-TLR-4 expressing HEK293 cells; also recorded: did not result in nuclear translocation”. The “NF-κB nuclear localization (immunofluorescence, DAPI merge)” value in data set [7] is listed as “nuclear localization of NF-κB was observed”.

Turning to “QEINSSY [RS01, Gln Glu Ile Asn Ser Ser Tyr]”, the “antibody response to the adjuvant peptide (immunogenicity)” value in data set [1] was “no antibodies were produced”.

Consider SMPNPMV [RS03], for which the “TLR-4 stimulation and NF-κB activation” value in data set [2] was “considered as TLR-4 stimulating and hence activators of NF-κB”.

Take VVPTPPY [RS11]: the “TLR-4 stimulation and NF-κB activation” value in data set [2] was “considered as positive for TLR-4 stimulation and NF-κB activation”.
